Measured values: patent US4439426A, “Semisynthetic macrolidic antibiotics, intermediate compounds for their preparation and related pharmaceutical compositions containing them” (priority 1981, dated 1984)
In brackets after ≈: the same amount, converted by molar mass.

Experiments:
[1] = test system: Staphylococcus aureus ATCC 6538 P LRP 39; assay: Bacteriostatic power in liquid medium (MIC); format: cell-based; details: Staphylococcus aureus, ATCC6538; liquid medium; read-out: Minimum inhibiting concentration
Excerpt: (§1) the bacteriostatic power, expressed as the minimum inhibiting concentration (MIC) against both aerobic and anaerobic, Gram positive and Gram negative, bacterial stocks: the related results are reported in the tables 2 and 3.

[2] = test system: Streptococcus pyogenes ATCC 8668 LRP 34; assay: Bacteriostatic power in liquid medium (MIC); format: cell-based; details: Streptococcus pyogenes, ATCC8668; liquid medium; read-out: Minimum inhibiting concentration
Excerpt: as §1

[3] = test system: Streptococcus pneumoniae ATCC 6303 LRP 35; assay: Bacteriostatic power in liquid medium (MIC); format: cell-based; details: Streptococcus pneumoniae, ATCC6303; liquid medium; read-out: Minimum inhibiting concentration
Excerpt: as §1

[4] = test system: Corynebacterium diphteriae LRP 24; assay: Bacteriostatic power in liquid medium (MIC); format: cell-based; details: Corynebacterium, LRP24; liquid medium; read-out: Minimum inhibiting concentration
Excerpt: as §1

[5] = test system: Streptococcus faecalis subs. zymogenes ATCC 12958 LRP 61; assay: Bacteriostatic power in liquid medium (MIC); format: cell-based; details: Enterococcus faecalis, ATCC12958; liquid medium; read-out: Minimum inhibiting concentration
Excerpt: as §1

[6] = test system: Staphylococcus aureus ATCC 6538 P LRP 39; assay: Minimum bactericidal concentration (MBC); format: cell-based
Excerpt: (§2) the bacterial power, expressed as the minimum bactericidal power (MBC) against some Gram positive aerobic stocks (table 5).

[7] = test system: Streptococcus pyogenes ATCC 8668 LRP 34; assay: Minimum bactericidal concentration (MBC); format: cell-based
Excerpt: as §2

[8] = test system: Streptococcus faecalis subs. zymogenes LRP 61; assay: Minimum bactericidal concentration (MBC); format: cell-based
Excerpt: as §2

[9] = test system: Streptococcus pneumoniae ATCC 6303 LRP 35; assay: Minimum bactericidal concentration (MBC); format: cell-based
Excerpt: as §2

[10] = test system: Corynebacterium diphteriae LRP 24; assay: Minimum bactericidal concentration (MBC); format: cell-based
Excerpt: as §2

[11] = test system: Clostridium perfrigens ATCC 3624 LRP 206; assay: microbe, parasite or virus in culture; format: cell-based; details: ATCC3624, solid medium, anaerobic, read-out: Minimum inhibiting concentration
Excerpt: as §1

Salmonella typhy LRP 8 = assay: microbe, parasite or virus in culture; format: cell-based; details: LRP8, solid medium, read-out: Minimum inhibiting concentration
Excerpt: as §1

Bacillus subtilis LRP 25 = assay: Bacteriostatic power in solid medium (MIC); format: cell-based; details: Bacillus subtilis, LRP25; solid medium; read-out: Minimum inhibiting concentration
Excerpt: as §1

[12] = test system: Streptococcus pneumoniae ATCC 6303 LRP 52; assay: Bacteriostatic power in solid medium (MIC); format: cell-based; details: Streptococcus pneumoniae, ATCC6303; solid medium; read-out: Minimum inhibiting concentration
Excerpt: as §1

[13] = test system: Streptococcus pyogenes ATCC 8668 LRP 197; assay: Bacteriostatic power in solid medium (MIC); format: cell-based; details: Streptococcus pyogenes, ATCC8668; solid medium; read-out: Minimum inhibiting concentration
Excerpt: as §1

[14] = test system: Pseudomonas aeruginosa LRP 9; assay: Bacteriostatic power in solid medium (MIC); format: cell-based; details: Pseudomonas aeruginosa, LRP9; solid medium; read-out: Minimum inhibiting concentration
Excerpt: as §1

[15] = test system: Staphylococcus aureus ATCC 14154 LRP 78; assay: Bacteriostatic power in solid medium (MIC); format: cell-based; details: Staphylococcus aureus, ATCC14154; solid medium; Erythromycin resistant; read-out: Minimum inhibiting concentration
Excerpt: as §1

[16] = test system: Fusobacteriumnecrophroum ATCC 27852 LRP 210; assay: Bacteriostatic power in solid medium (MIC); format: cell-based; details: read-out: Minimum inhibiting concentration
Excerpt: as §1

[17] = test system: Klelsiella pneumoniae LRP 54; assay: Bacteriostatic power in solid medium (MIC); format: cell-based; details: solid medium; read-out: Minimum inhibiting concentration
Excerpt: as §1

[18] = test system: Micrococcus luteus ATCC 15957 LRP 193; assay: Bacteriostatic power in solid medium (MIC); format: cell-based; details: Micrococcus luteus, ATCC15957; solid medium; Erythromycin resistant; read-out: Minimum inhibiting concentration
Excerpt: as §1

[19] = test system: Streptococcus pyogenes ATCC 8668 LRP 34; assay: Bacteriostatic power in solid medium (MIC); format: cell-based; details: Streptococcus pyogenes, ATCC8668; solid medium; read-out: Minimum inhibiting concentration
Excerpt: as §1

[20] = test system: Staphylococcus aureus ATCC 6538P LRP 14; assay: Bacteriostatic power in solid medium (MIC); format: cell-based; details: Staphylococcus aureus, ATCC6538P; solid medium; Penycilline resistant; read-out: Minimum inhibiting concentration
Excerpt: as §1

[21] = test system: Streptococcus faecalis subsp. zymogenes ATCC 12958 LRP 61; assay: Bacteriostatic power in solid medium (MIC); format: cell-based; details: Enterococcus faecalis, ATCC12958; solid medium; read-out: Minimum inhibiting concentration
Excerpt: as §1

[22] = test system: Streptococcus pneumoniae ATCC 6303 LRP 35; assay: Bacteriostatic power in solid medium (MIC); format: cell-based; details: Streptococcus pneumoniae, ATCC6303; solid medium; read-out: Minimum inhibiting concentration
Excerpt: as §1

[23] = test system: Streptococcus pneumoniae ATCC 6303 LRP 53; assay: Bacteriostatic power in solid medium (MIC); format: cell-based; details: Streptococcus pneumoniae, ATCC6303; solid medium; read-out: Minimum inhibiting concentration
Excerpt: as §1

[24] = test system: Neisseria gonorrhoeae ATCC 19424 LRP 214; assay: Bacteriostatic power in solid medium (MIC); format: cell-based; details: Neisseria gonorrhoeae, ATCC19424; solid medium; read-out: Minimum inhibiting concentration
Excerpt: as §1

[25] = test system: Haemophilus influenzae ATCC 19418 LRP 213; assay: Bacteriostatic power in solid medium (MIC); format: cell-based; details: Haemophilus influenzae, ATCC19418, read-out: Minimum inhibiting concentration
Excerpt: as §1

[26] = test system: Micrococcus luteus ATCC 9341 LRP 6; assay: Bacteriostatic power in solid medium (MIC); format: cell-based; details: Micrococcus luteus, ATCC9341; solid medium; read-out: Minimum inhibiting concentration
Excerpt: as §1

[27] = test system: Corynebacterium diphteriae LRP 24; assay: Bacteriostatic power in solid medium (MIC); format: cell-based; details: Corynebacterium, LRP24; solid medium; read-out: Minimum inhibiting concentration
Excerpt: as §1

[28] = test system: Acholeplasma laidlawii ATCC 23206 LRP 204; assay: Bacteriostatic power in solid medium (MIC); format: cell-based; details: Acholeplasma laidlawii, ATCC23206; solid medium; read-out: Minimum inhibiting concentration
Excerpt: as §1

Shigella sonnei LRP 5 = assay: Bacteriostatic power in solid medium (MIC); format: cell-based; details: LRP5, read-out: Minimum inhibiting concentration
Excerpt: as §1

Escherichia coli LRP 50 = assay: Bacteriostatic power in solid medium (MIC); format: cell-based; details: Escherichia coli, LRP50, read-out: Minimum inhibiting concentration
Excerpt: as §1

[29] = test system: Mycoplasma hominis I ATCC 14027 LRP 211; assay: Bacteriostatic power in solid medium (MIC); format: cell-based; details: Metamycoplasma hominis, ATCC14027; solid medium; read-out: Minimum inhibiting concentration
Excerpt: as §1

[30] = test system: Bacteroides fragilis ATCC 23745 LRP 205; assay: Bacteriostatic power in solid medium (MIC); format: cell-based; details: Bacteroides fragilis, ATCC23745; solid medium; anaerobic; read-out: Minimum inhibiting concentration
Excerpt: as §1

[31] = test system: Proteus vulgaris ATCC 6380 LRP 13; assay: Bacteriostatic power in solid medium (MIC); format: cell-based; details: Proteus vulgaris, ATCC6380; solid medium; read-out: Minimum inhibiting concentration
Excerpt: as §1

[32] = test system: Staphylococcus aureus ATCC 6538P LRP 39; assay: Bacteriostatic power in solid medium (MIC); format: cell-based; details: Staphylococcus aureus, ATCC6538P; solid medium; read-out: Minimum inhibiting concentration
Excerpt: as §1

[33] = test system: Streptococcus faecalis LRP 7; assay: Bacteriostatic power in solid medium (MIC); format: cell-based; details: Enterococcus faecalis, LRP7; solid medium; read-out: Minimum inhibiting concentration
Excerpt: as §1

[34] = Stability in acidic environment at 25° C. (half-life of initial microbiological activity); format: physicochemical; details: aqueous solution
Experimental: Stability in acidic environnment at 25° C. of the novel
Note: t 1/2 represents the time for reducing to one half the initial powe
of the antibiotic determined by microbiological method through diffusion
on a plate using the test stock Microccocus luteus (Sarcina lutea) ATCC

CC[C@H]1OC(=O)[C@H](C)[C@@H](O[C@H]2C[C@@](C)(O)[C@@H](O)[C@H](C)O2)[C@H](C)[C@@H](O[C@@H]2O[C@H](C)C[C@H](N(C)C)[C@H]2O)[C@](C)(O)C[C@](C)(F)C(=O)[C@H](C)[C@@H](O)[C@]1(C)O [P-80205, (8S)-8-fluoroerythromycin C]
MIC [1]: 0.195 µg/mL (≈ 0.264 µM)
MIC [2]: 0.049 µg/mL (≈ 0.0664 µM)
MIC [3]: 0.097 µg/mL (≈ 0.131 µM)
MIC [4]: 0.049 µg/mL (≈ 0.0664 µM)
MIC [5]: 0.39 µg/mL (≈ 0.529 µM)
MBC/MIC [6]: 16
MBC ([6]; Staphylococcus aureus, ATCC6538, read-out: Minimum bactericidal concentration (MBC)): 3.12 µg/mL (≈ 4.23 µM)
MBC/MIC [7]: 16
MBC ([7]; Streptococcus pyogenes, ATCC8668, read-out: Minimum bactericidal concentration (MBC)): 0.78 µg/mL (≈ 1.06 µM)
MBC/MIC [8]: > 8
MBC ([8]; Enterococcus faecalis, read-out: Minimum bactericidal concentration (MBC)): > 3.12 µg/mL
MBC/MIC [9]: 2
MBC ([9]; Streptococcus pneumoniae, ATCC6303, read-out: Minimum bactericidal concentration (MBC)): 0.195 µg/mL (≈ 0.264 µM)
MBC/MIC [10]: 8
MBC ([10]; Corynebacterium, LRP24, read-out: Minimum bactericidal concentration (MBC)): 0.39 µg/mL (≈ 0.529 µM)
MIC [11]: 6.25 µg/mL (≈ 8.47 µM)
MIC (Salmonella typhy LRP 8): 12.5 µg/mL (≈ 16.9 µM)
MIC (Bacillus subtilis LRP 25): 0.097 µg/mL (≈ 0.131 µM)
MIC [12]: 0.012 µg/mL (≈ 0.0163 µM)
MIC [13]: 0.024 µg/mL (≈ 0.0325 µM)
MIC [14]: 25 µg/mL (≈ 33.9 µM)
MIC [15]: 25 µg/mL (≈ 33.9 µM)
MIC [16]: 12.5 µg/mL (≈ 16.9 µM)
MIC [17]: 25 µg/mL (≈ 33.9 µM)
MIC [18]: 25 µg/mL (≈ 33.9 µM)
MIC [19]: 0.024 µg/mL (≈ 0.0325 µM)
MIC [20]: 0.097 µg/mL (≈ 0.131 µM)
MIC [21]: 0.097 µg/mL (≈ 0.131 µM)
MIC [22]: 0.024 µg/mL (≈ 0.0325 µM)
MIC [23]: 0.024 µg/mL (≈ 0.0325 µM)
MIC [24]: 0.195 µg/mL (≈ 0.264 µM)
MIC [25]: 12.5 µg/mL (≈ 16.9 µM)
MIC [26]: 0.012 µg/mL (≈ 0.0163 µM)
MIC [27]: 0.012 µg/mL (≈ 0.0163 µM)
MIC [28]: 3.12 µg/mL (≈ 4.23 µM)
MIC (Shigella sonnei LRP 5): 25 µg/mL (≈ 33.9 µM)
MIC (Escherichia coli LRP 50): 12.5 µg/mL (≈ 16.9 µM)
MIC [29]: 25 µg/mL (≈ 33.9 µM)
MIC [30]: 0.78 µg/mL (≈ 1.06 µM)
MIC [31]: 25 µg/mL (≈ 33.9 µM)
MIC [32]: 0.097 µg/mL (≈ 0.131 µM)
MIC [33]: 0.097 µg/mL (≈ 0.131 µM)
half-life ([34]; pH 2): 1.65 h
half-life ([34]; pH 3): 41.5 h
